Series [1] deals with p-AKT in NCI-H358 (KRAS^G12C, PIK3CA^WT) cells. As to the kind of experiment: Basal p-AKT assay. In kind it is cell-based, human. Conditions: NCI‐H358 (KRAS^G12C, PIK3CA^WT) cell line.
The subject of a further series is NCI-H1993 (KRAS^WT). The series can be described thus: Proliferation assay. In kind it is cell-based, human. To be noted: NCI-H1993 (Figure S2D).
The test system of series [2] is p-AKT in NCI-H1993 (KRAS^WT, PIK3CA^WT) cells. The series can be described thus: Basal p-AKT assay. In kind it is cell-based, human. To be noted: NCI‐H1993 (KRAS^WT, PIK3CA^WT) cell line.
The test system of the next series is NCI-H358 (KRAS^G12C). As to the kind of experiment: Proliferation assay. To be noted: NCI-H358 (Figure S2D). The series is classed as cell-based, human.
Series [3] is described as follows: in vitro. To be noted: CD-1, mouse, plasma.
A short description of series [4]: in vitro. Conditions: CD-1, mouse, brain homogenate. The series is classed as in vitro ADME.
The nature of series [5]: in vitro. Conditions: human, Caco-2.
Another series can be described thus: in vivo. Conditions: female, Balbc nude, mouse, 30 mg/kg.
The conditions of series [6]: 30 mg/kg.

Structures are written as SMILES.

As for `C[C@H](Nc1ccc2c(c1)OCCn1cc(N3C(=O)OC[C@H]3C(F)F)nc1-2)C(N)=O` [GDC-0077], the “effect on p‐AKT level” value in series [1] and in series [2] was “reduced” each time. The “inhibitory effect on cell proliferation” value in the series on NCI-H1993 (KRAS^WT) and in the series on NCI-H358 (KRAS^G12C) was “very weak inhibitory effect” throughout.
For `C=C(F)C(=O)N1CCN(c2nc(OC[C@@H]3CCCN3C)nc3c2CCN(c2cccc4cccc(Cl)c24)C3)C[C@@H]1CC#N` [Adagrasib, adagrasib], the fraction unbound (as a rule, the share of the substance not bound to proteins or other matrix) at 5 h, 1 μM is 0.002 in the series “in vitro [3]” and 0.001 in “in vitro [4]”. The apparent permeability from apical to basolateral (Papp A→B) (usually how fast a substance crosses the layer from the apical side) at 120 min, 10 μM in “in vitro [5]” amounted to 0.8 ×10⁻⁶ cm/s. In addition, the AUC (as a rule, concentration integrated over time) in the series “in vivo” worked out at 44.3 µM·h. In “in vivo”, this compound came in with a Kp uu of 0.01. Also, in series [6] (AUCbrain × fu,brain), the “Unbound brain AUC” value is 0.0009 µM·h. Moreover, in series [6] (AUCplasma × fu,plasma), the “Unbound plasma AUC” value is 0.089 µM·h.

Source of the values: paper PMC10323112 (Cancer Science, 2023).
